# According to paper PMC10526199 (Biomolecules, 2023):
# What was measured:
# [1] = system: HDAC2; conditions: cited from earlier work
# [2] = system: HDAC8; conditions: cited from earlier work
# [3] = system: HDAC1; conditions: cited from earlier work
# [4] = system: 3xTg-AD mice; assay: Intraperitoneal glucose tolerance testing (GTT) in 3xTg-AD mice; format: in vivo, mouse; conditions: 10 months of age, 0.01 mg/kg oral gavage 5 days a week
# Excerpt: (§1) Male and female triple-transgenic AD (3xTg-AD) mice from the NIH-supported Mutant Mouse Resource & Research Centers (MMRRC) were purchased through the Jackson Laboratory (Farmington, CT, USA). Mice were housed four animals per cage in an AAALAC-accredited animal facility at the University of Miami Miller School of Medicine. All experiments were approved by the University of Miami Miller School of Medicine Institutional Animal Care and Use Committee (IACUC).
# (§2) Formulations were made fresh weekly and sonicated briefly to mix. Beginning at 4 months of age (prior to disease development), mice were treated 5 days a week for 9 months.
# (§3) Mice underwent intraperitoneal (i.p.) glucose tolerance testing (GTT) at 10 months of age, and insulin tolerance testing (ITT) at 12 months of age. For both tests, mice were food fasted 6 h prior to testing, with access to water. For GTT, mice were injected with 1.5 g/kg body weight glucose diluted in saline. For ITT, mice were injected with 0.8 U/kg body weight insulin. For both tests, blood glucose was measured from a tail prick by a glucometer (Bayer; Leverkusen, Germany) at 0, 15, 30, 60, 90, and 120 min.
# [5] = system: HDAC10; conditions: cited from earlier work
# [6] = system: HDAC3; conditions: cited from earlier work
# [7] = system: differentially expressed genes; assay: NanoString nCounter Mouse Neuropathology Panel and Ingenuity Pathway Analysis, ERC RNA of 3xTg-AD mice; format: in vivo; conditions: for DEGs decreased compared to vehicle / DEGs increased compared to vehicle / significant differentially expressed genes (DEG) compared to vehicle: ERC, 0.01 mg/kg oral gavage 9 months; for significant differentially expressed genes (DEG) compared to vehicle: Q value < 0.01; for most pathways incl. neuroinflammation signaling and amyloid processing pathway, vs vehicle: Ingenuity Pathway Analysis
# Excerpt: as §1, §2
# (§4) At 13 months of age, mice were anaesthetized with isoflurane and euthanized via cardiac puncture. The brain was extracted and quickly dissected on ice, and snap-frozen in liquid nitrogen. The samples were stored at −80 °C until processed. For each mouse, brain regions from one hemisphere were used for RNA extraction and qPCR and sections from the other hemisphere were used for protein extraction and ELISAs.
# The NanoString Technologies nCounter® Mouse Neuropathology Panel was used to assess ERC RNA. This panel screens expression of 770 genes specific for neurodegeneration. We also included a custom 30-gene spike-in code set to include specific genes of interest. Assays were performed using the NanoString protocols, and data were normalized in nSolver® analysis software v 2.0.
# Heatmaps were created with Morpheus Software (accessed on 20 February 2022; software.broadinstitute.org/Morpheus). Ingenuity Pathway Analysis (Qiagen) was used to run comparison analyses of differentially regulated pathways between male and female animals.
# [8] = system: Human Aβ1–42, Aβ1–40, total tau, phosphorylated-tau Serine-396, phosphorylated-tau Threonine-181; assay: ELISA for tau and Aβ species in brain tissue of 3xTg-AD mice; format: in vivo, mouse
# Excerpt: as §1, §2, §4
# Protein lysates were prepared by sonicating tissue in M-PER Mammalian Protein Extraction Reagent (Thermo Fisher Scientific; Waltham, MA, USA) supplemented with protease and phosphatase inhibitor (Thermo Fisher Scientific). Total protein was quantified using Pierce BCA Protein Assay Kit (Thermo Fisher Scientific). Human Aβ1–42, Aβ1–40, total tau, phosphorylated-tau Serine-396, and phosphorylated-tau Threonine-181 were measured in brain tissue by enzyme-linked immunosorbent assay (ELISA; Invitrogen, Thermo Fisher Scientific), and measured using the EnVision® multimode plate reader (Perkin Elmer; Waltham, MA, USA).
# [9] = system: histone H3K27 acetylation; conditions: 0.1 mg/kg, mouse model of immune thrombocytopenia; cited from earlier work
# [10] = cited from earlier work
# [11] = system: 3xTg-AD mice; assay: Behavior tests (NOR and battery) in 3xTg-AD mice; format: in vivo, mouse; conditions: 0.01 mg/kg oral gavage 5 days a week
# Excerpt: as §1, §2
# A series of behavior tests intended to test motor coordination, anxiety, spatial learning, and reference memory was performed as previously performed by our lab. Motor coordination was assessed at 11 months of age using rotarod. Anxiety was assessed by open field at 7 months and elevated O-maze at 11 months. […]
# 1. […] Motor coordination was assessed by the latency to fall on the very first trial between treatment groups. […]
# 3. […] Arm entries were recorded and percent of spontaneous alternations was calculated. […]
# 4. […] Distance traveled, velocity of movement within the arena, and time in center versus periphery were recorded and analyzed. Anxiety- related behavior is assessed by the duration spent in the center of the field versus the periphery. […]
# [12] = system: Adam10, Slc2a1, Slc2a3; assay: RT-qPCR of AD- and glucose metabolism-related genes in brain of 3xTg-AD mice; format: in vivo, mouse; conditions: 0.01 mg/kg oral gavage 9 months
# Excerpt: as §1, §2, §4
# RNA was isolated from tissue using TRIzol® reagent (Life Technologies, Thermo Fisher Scientific) and a Qiagen RNeasy® Mini Kit (Qiagen; Hilden, Germany). RNA concentrations and quality were determined using NanoDrop 2000 UV-Vis Spectrophotometer (Thermo Fisher Scientific). cDNA was created using qScript cDNA Synthesis kit (Quantabio; Beverly, MA, USA). RT-qPCR was run using TaqMan 2-step RT-qPCR reagents (Thermo Fisher Scientific) on the QuantStudio Flex RT-qPCR system (Applied Biosystems, Thermo Fisher Scientific). Fold-change in gene expression relative to non-transduced controls were normalized. Results presented are based on fold-change using the 2^(−ΔΔCt) method.
# [13] = system: 3xTg-AD mice; assay: Insulin tolerance testing (ITT) in 3xTg-AD mice; format: in vivo, mouse; conditions: 12 months, 0.01 mg/kg oral gavage 5 days a week
# Excerpt: as §1, §2, §3
# [14] = PFC, 0.01 mg/kg oral gavage 5 days a week for 9 months
# [15] = hippocampus, females, 0.01 mg/kg oral gavage 5 days a week for 9 months
# [16] = hippocampus, males, 0.01 mg/kg oral gavage 5 days a week for 9 months
smiles,measurement,setting,value
Nc1cc(F)ccc1NC(=O)c1ccc(CNC(=O)/C=C/c2cccnc2)cc1 [chidamide],glucose tolerance vs vehicle,[4]; females,trend towards improved glucose tolerance
same,glucose tolerance vs vehicle,[4]; males,significant improvement in glucose tolerance
same,inhibition of class IIB HDAC10,[5],low nanomolar range
same,inhibition of HDAC2,[1],low nanomolar range
same,inhibition of HDAC3,[6],low nanomolar range
same,DEGs decreased compared to vehicle,[7]; females,6
same,DEGs increased compared to vehicle,[7]; females,11
same,significant differentially expressed genes (DEG) compared to vehicle,[7]; females,17
same,"most pathways incl. neuroinflammation signaling and amyloid processing pathway, vs vehicle",[7]; females,downregulated
same,DEGs decreased compared to vehicle,[7]; males,41
same,DEGs increased compared to vehicle,[7]; males,83
same,significant differentially expressed genes (DEG) compared to vehicle,[7]; males,124
same,"most pathways incl. neuroinflammation signaling and amyloid processing pathway, vs vehicle",[7]; males,upregulated
same,tau phosphorylated at serine 396 (S396) vs vehicle,"[8]; PFC, females, 0.01 mg/kg oral gavage 5 days a week for 9 months",no significant difference
same,tau phosphorylated at serine 396 (S396) vs vehicle,"[8]; PFC, males, 0.01 mg/kg oral gavage 5 days a week for 9 months",significantly greater
same,"Aβ-40 levels, treated females compared to treated males",[8]; [14],greater in chidamide-treated females compared to males
same,PFC Aβ-42 change with treatment,[8]; [14],a corresponding decrease in PFC Aβ-42 was not observed
same,progression of AD-like pathology,"[8]; chronic, low-dose 0.01 mg/kg, 3xTg-AD mouse",does not appear to significantly alter progression of AD-like pathology
same,tau phosphorylated at threonine 181 (T181) vs vehicle,[8]; [15],trend for decreased levels
same,total tau levels vs vehicle,[8]; [15],did not show a significant difference
same,tau phosphorylated at threonine 181 (T181) vs vehicle,[8]; [16],trend for decreased levels
same,total tau levels vs vehicle,[8]; [16],significantly lower levels of total tau
same,"Aβ-42 levels, treated females compared to treated males","[8]; hippocampus, 0.01 mg/kg oral gavage 5 days a week for 9 months",significantly greater in the hippocampus of female- compared to male-treated mice
same,histone H3K27 acetylation,[9],modulation of histone H3K27 acetylation occurred at this low dose
same,inhibition of HDAC1,[3],low nanomolar range
same,blood–brain barrier crossing,[10],crosses the blood–brain barrier
same,NOR: time exploring novel vs familiar object compared to vehicle,[11]; 10-month-old males,longer time exploring the novel object
same,"overall behavior data (anxiety, learning, memory)",[11]; males and females,do not reach the appropriate effect size to distinguish any meaningful results
same,Adam10 expression vs vehicle,"[12]; PFC, females",significantly greater
same,Adam10 expression vs vehicle,"[12]; PFC, males",trend for increase
same,Adam10 expression vs vehicle,[12]; hippocampus,no difference was observed
same,Slc2a1 (GLUT1) expression vs vehicle,"[12]; males, hippocampus",trend for an increase
same,Slc2a3 (GLUT3) expression vs vehicle,"[12]; males, hippocampus",significant increase
same,insulin tolerance vs vehicle,[13]; females,No significant differences
same,insulin tolerance vs vehicle,[13]; males,No significant differences
CC(=O)Nc1ccc(C(=O)Nc2ccccc2N)cc1 [Tacedinaline],IC50,[1],900 nM
same,IC50,[6],1200 nM
same,inhibition of HDAC8,[2],not reported to inhibit HDAC8
